pIC50: −log10 of the molar value.
Experiments:
[1] = target: T1, Cyclin-dependent kinase 5/CDK5 activator 1 (Homo sapiens) (UniProt Q00535+Q15078); test: Inhibition of human recombinant CDK5/p25 expressed in bacteria assessed as enzyme residual activity using histone H1 as substrate at 1 uM incubated for 30 mins in presence of ATP by ADP-Glo kinase assay
[2] = target: Glycogen synthase kinase-3 beta (Homo sapiens) (UniProt P49841); test: Inhibition of human recombinant GSK-3 beta expressed in baculovirus-infected Sf9 cells assessed as enzyme residual activity using YRRAAVPPSPSLSRHSSPHQSpEDEEE as substrate at 1 uM incubated for 30 mins in presence of ATP by ADP-Glo kinase assay
[3] = target: Casein kinase I isoform epsilon (Homo sapiens) (UniProt P49674); test: Inhibition of human recombinant CK1 epsilon expressed in baculovirus-infected Sf9 cells assessed as enzyme residual activity using RRKHAAIGSpAYSITA as substrate at 10 uM incubated for 30 mins in presence of ATP by ADP-Glo kinase assay
[4] = target: Dual specificity tyrosine-phosphorylation-regulated kinase 1A (Rattus norvegicus) (UniProt Q63470); test: Inhibition of recombinant rat DYRK1A kinase domain (1 to 499 residues) expressed in bacteria assessed as enzyme residual activity using KKISGRLSPIMTEQ as substrate at 1 uM incubated for 30 mins in presence of ATP by ADP-Glo kinase assay
[5] = target: Glycogen synthase kinase-3 beta (Homo sapiens) (UniProt P49841); test: Inhibition of human recombinant GSK-3 beta expressed in baculovirus-infected Sf9 cells assessed as enzyme residual activity using YRRAAVPPSPSLSRHSSPHQSpEDEEE as substrate at 10 uM incubated for 30 mins in presence of ATP by ADP-Glo kinase assay
[6] = target: T2, Serine/threonine-protein kinase pim-1 (Homo sapiens, UniProt P11309); test: Inhibition of human recombinant PIM-1 expressed in bacteria assessed as enzyme residual activity using histone H1 as substrate at 1 uM incubated for 30 mins in presence of ATP by ADP-Glo kinase assay
[7] = target: Dual specificity protein kinase CLK1 (Mus musculus) (UniProt P22518); test: Inhibition of recombinant mouse CLK1 expressed in bacteria assessed as enzyme residual activity using GRSRSRSRSRSR as substrate at 1 uM incubated for 30 mins in presence of ATP by ADP-Glo kinase assay
[8] = target: T2, Serine/threonine-protein kinase pim-1; test: Inhibition of human recombinant PIM-1 expressed in bacteria assessed as enzyme residual activity using histone H1 as substrate at 10 uM incubated for 30 mins in presence of ATP by ADP-Glo kinase assay
[9] = target: T3, Serine/threonine-protein kinase haspin (Homo sapiens, UniProt Q8TF76); test: Inhibition of recombinant human Haspin kinase domain (470 to 798 residues) expressed in bacteria using histone H3 (1 to 21) peptide as substrate incubated for 30 mins in presence of ATP by ADP-Glo kinase assay
T3 sequence (Q8TF76 whole entry): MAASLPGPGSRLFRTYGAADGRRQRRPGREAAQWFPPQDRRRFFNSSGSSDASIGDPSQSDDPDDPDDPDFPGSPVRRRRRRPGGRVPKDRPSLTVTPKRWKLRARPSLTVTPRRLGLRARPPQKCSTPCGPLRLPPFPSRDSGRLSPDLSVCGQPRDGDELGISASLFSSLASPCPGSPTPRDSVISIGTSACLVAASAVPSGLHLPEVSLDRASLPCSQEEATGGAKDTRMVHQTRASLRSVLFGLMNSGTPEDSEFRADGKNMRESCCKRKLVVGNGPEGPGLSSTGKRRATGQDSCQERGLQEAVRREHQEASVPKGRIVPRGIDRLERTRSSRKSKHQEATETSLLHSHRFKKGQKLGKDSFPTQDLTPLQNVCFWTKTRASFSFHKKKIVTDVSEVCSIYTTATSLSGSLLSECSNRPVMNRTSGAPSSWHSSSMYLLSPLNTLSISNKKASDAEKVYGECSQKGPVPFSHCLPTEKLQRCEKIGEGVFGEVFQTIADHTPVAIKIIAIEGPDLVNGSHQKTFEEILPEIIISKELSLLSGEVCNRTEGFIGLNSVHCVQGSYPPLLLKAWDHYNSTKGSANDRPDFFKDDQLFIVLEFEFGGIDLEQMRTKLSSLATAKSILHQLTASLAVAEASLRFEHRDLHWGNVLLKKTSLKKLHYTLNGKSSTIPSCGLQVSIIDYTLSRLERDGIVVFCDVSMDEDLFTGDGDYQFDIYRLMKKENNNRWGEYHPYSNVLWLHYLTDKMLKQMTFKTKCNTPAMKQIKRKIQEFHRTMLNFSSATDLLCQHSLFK

[10] = target: Dual specificity protein kinase CLK1 (Mus musculus) (UniProt P22518); test: Inhibition of recombinant mouse CLK1 expressed in bacteria assessed as enzyme residual activity using GRSRSRSRSRSR as substrate at 10 uM incubated for 30 mins in presence of ATP by ADP-Glo kinase assay
[11] = target: Casein kinase I isoform epsilon (Homo sapiens) (UniProt P49674); test: Inhibition of human recombinant CK1 epsilon expressed in baculovirus-infected Sf9 cells assessed as enzyme residual activity using RRKHAAIGSpAYSITA as substrate at 1 uM incubated for 30 mins in presence of ATP by ADP-Glo kinase assay
[12] = target: Dual specificity tyrosine-phosphorylation-regulated kinase 1A (Rattus norvegicus) (UniProt Q63470); test: Inhibition of recombinant rat DYRK1A kinase domain (1 to 499 residues) expressed in bacteria assessed as enzyme residual activity using KKISGRLSPIMTEQ as substrate at 10 uM incubated for 30 mins in presence of ATP by ADP-Glo kinase assay
[13] = target: T1, Cyclin-dependent kinase 5/CDK5 activator 1 (Homo sapiens); test: Inhibition of human recombinant CDK5/p25 expressed in bacteria assessed as enzyme residual activity using histone H1 as substrate at 10 uM incubated for 30 mins in presence of ATP by ADP-Glo kinase assay
[14] = target: T4, CDK9/cyclin T1 (Homo sapiens) (UniProt O60563+P50750); test: Inhibition of human recombinant CDK9/cyclin T expressed in baculovirus-infected Sf9 cells assessed as enzyme residual activity using YSPTSPSYSPTSPSYSPTSPSKKKK as substrate at 1 uM incubated for 30 mins in presence of ATP by ADP-Glo kinase assay
[15] = target: T4, CDK9/cyclin T1 (Homo sapiens); test: Inhibition of human recombinant CDK9/cyclin T expressed in baculovirus-infected Sf9 cells assessed as enzyme residual activity using YSPTSPSYSPTSPSYSPTSPSKKKK as substrate at 10 uM incubated for 30 mins in presence of ATP by ADP-Glo kinase assay

T1 sequence (Q00535 whole entry): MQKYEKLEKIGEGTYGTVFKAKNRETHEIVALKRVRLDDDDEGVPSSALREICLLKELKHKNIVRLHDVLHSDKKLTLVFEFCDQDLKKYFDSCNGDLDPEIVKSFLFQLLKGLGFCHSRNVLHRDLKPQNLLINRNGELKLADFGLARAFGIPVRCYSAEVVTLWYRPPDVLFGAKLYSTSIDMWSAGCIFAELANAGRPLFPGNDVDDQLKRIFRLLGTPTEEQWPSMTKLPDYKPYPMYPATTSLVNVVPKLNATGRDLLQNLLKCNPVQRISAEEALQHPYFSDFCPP
T1 sequence (Q15078 99-307 partner limits assumed): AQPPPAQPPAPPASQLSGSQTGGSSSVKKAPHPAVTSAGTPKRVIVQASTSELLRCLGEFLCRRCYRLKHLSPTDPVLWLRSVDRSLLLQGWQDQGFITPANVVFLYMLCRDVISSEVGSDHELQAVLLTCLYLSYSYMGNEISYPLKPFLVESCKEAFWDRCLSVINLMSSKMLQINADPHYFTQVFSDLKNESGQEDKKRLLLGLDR
Sequence of Casein kinase I isoform epsilon (Homo sapiens) (P49674 whole entry, looked up, the tested form may be a part, canonical isoform): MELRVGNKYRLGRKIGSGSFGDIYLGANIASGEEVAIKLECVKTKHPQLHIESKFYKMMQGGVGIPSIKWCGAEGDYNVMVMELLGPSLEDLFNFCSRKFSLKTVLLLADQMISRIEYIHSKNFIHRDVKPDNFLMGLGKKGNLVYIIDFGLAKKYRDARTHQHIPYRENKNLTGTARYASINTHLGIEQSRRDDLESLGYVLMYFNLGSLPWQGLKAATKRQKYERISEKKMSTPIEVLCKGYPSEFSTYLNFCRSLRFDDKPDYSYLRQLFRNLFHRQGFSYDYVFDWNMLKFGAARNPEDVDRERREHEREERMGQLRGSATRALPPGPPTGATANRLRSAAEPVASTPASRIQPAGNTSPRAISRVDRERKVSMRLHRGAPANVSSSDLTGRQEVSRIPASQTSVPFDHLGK
Sequence of Dual specificity protein kinase CLK1 (Mus musculus) (P22518 whole entry, looked up, canonical isoform): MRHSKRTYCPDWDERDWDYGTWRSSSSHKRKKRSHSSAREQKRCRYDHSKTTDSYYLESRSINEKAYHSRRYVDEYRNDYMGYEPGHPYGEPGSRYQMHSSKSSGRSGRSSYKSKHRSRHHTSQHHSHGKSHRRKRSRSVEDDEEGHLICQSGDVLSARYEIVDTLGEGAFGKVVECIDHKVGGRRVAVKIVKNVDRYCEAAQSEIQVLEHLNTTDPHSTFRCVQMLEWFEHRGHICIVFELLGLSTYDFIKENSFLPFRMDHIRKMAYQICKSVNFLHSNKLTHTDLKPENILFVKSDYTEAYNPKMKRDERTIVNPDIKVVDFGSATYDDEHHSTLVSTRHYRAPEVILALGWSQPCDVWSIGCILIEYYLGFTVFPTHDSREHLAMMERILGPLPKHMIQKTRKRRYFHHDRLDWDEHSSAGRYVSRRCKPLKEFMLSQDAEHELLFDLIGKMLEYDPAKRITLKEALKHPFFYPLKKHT
T2 sequence (P11309 whole entry, looked up): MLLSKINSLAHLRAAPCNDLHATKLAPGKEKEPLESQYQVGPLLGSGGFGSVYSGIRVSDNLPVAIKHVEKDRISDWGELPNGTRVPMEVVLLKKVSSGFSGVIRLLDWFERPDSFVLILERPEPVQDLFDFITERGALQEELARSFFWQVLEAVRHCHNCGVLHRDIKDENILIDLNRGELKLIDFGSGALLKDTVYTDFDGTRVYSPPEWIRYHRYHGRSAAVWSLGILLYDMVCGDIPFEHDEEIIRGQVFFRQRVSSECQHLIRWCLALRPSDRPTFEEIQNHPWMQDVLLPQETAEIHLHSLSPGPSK
Sequence of Glycogen synthase kinase-3 beta (Homo sapiens) (P49841 whole entry, looked up, canonical isoform): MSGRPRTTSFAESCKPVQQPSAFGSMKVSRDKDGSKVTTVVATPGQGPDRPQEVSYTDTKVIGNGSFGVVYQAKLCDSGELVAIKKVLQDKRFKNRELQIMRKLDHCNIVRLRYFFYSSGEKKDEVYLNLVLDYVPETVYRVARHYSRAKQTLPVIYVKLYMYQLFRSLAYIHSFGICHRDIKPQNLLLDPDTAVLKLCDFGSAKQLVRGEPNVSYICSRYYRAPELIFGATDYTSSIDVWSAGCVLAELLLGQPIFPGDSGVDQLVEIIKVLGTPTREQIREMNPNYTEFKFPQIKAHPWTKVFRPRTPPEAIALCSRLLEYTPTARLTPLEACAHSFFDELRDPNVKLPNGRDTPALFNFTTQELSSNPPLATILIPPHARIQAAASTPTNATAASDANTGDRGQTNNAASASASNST

Compound	Activity [1] [%]	Activity [2] [%]	Activity [3] [%]	Activity [4] [%]	Activity [5] [%]	Activity [6] [%]	Activity [7] [%]	Activity [8] [%]	pIC50 [9]	Activity [10] [%]	Activity [11] [%]	Activity [12] [%]	Activity [13] [%]	Activity [14] [%]	Activity [15] [%]
c1cc2cc3c(-c4cncnc4)c[nH]c3cc2cn1	100	68	43	51	59	63	54	33	6.60	14	81	20	72	79	43
CN(C)Cc1c[nH]c2cc3cnccc3cc12	100	78	99	74	66	66	91	67	–	62	100	67	97	57	18
Cn1cc(I)c2cc3ccncc3cc21	95	81	72	46	60	48	61	26	6.61	22	100	14	22	57	26
Nc1cc2cc3ccncc3cc2[nH]1	89	69	52	100	64	100	73	88	–	20	79	39	99	74	27
Clc1c[nH]c2cc3cnccc3cc12	100	92	82	61	82	63	78	16	–	39	100	21	68	62	25
CCN(CC)Cc1c[nH]c2cc3cnccc3cc12	–	79	100	89	77	65	89	47	–	84	98	76	100	86	51
OCc1c[nH]c2cc3cnccc3cc12	–	84	98	77	81	100	96	100	6.09	55	100	62	94	81	55
Cn1ccc2cc3ccncc3cc21	53	100	85	67	83	67	92	35	~6.00	58	92	29	38	89	60
NCc1c[nH]c2cc3cnccc3cc12	100	94	96	77	80	97	99	84	–	86	99	62	94	93	58
c1ccc(-c2c[nH]c3cc4cnccc4cc23)cc1	97	66	88	53	77	53	74	18	6.32	44	100	19	73	83	63
CNCc1c[nH]c2cc3cnccc3cc12	93	87	98	–	83	89	95	90	–	74	100	92	88	58	37
CCNCc1c[nH]c2cc3cnccc3cc12	–	76	100	80	80	76	94	74	–	80	100	63	89	74	37
COc1ncc2cc3cnccc3c([N+](=O)[O-])c2n1	–	–	53	–	29	–	–	55	–	8	–	20	80	–	43
c1cc2cc3cc[nH]c3cc2cn1	100	100	90	99	100	90	87	45	–	67	97	37	98	76	34

— ChEMBL document CHEMBL5550090, “Synthesis and biological evaluation of 1H-pyrrolo[3,2-g]isoquinolines” (Bioorg Med Chem, 2024)
